{"source": "ChEMBL document CHEMBL1177689", "about": "“Structural characteristics of green tea catechins for formation of protein carbonyl in human serum albumin” (Bioorg Med Chem, 2010)", "key": {"[1]": {"test": "Chemical stability in 100 mM phosphate buffer at pH 7.4 at 100 uM after 60 mins by HPLC analysis", "format": "physicochemical", "details": "pH 7.4, 1 h; call rule not given here"}, "Albumin": {"molecular_target": "Albumin (Homo sapiens, UniProt P02768)", "sequence (P02768 whole entry)": "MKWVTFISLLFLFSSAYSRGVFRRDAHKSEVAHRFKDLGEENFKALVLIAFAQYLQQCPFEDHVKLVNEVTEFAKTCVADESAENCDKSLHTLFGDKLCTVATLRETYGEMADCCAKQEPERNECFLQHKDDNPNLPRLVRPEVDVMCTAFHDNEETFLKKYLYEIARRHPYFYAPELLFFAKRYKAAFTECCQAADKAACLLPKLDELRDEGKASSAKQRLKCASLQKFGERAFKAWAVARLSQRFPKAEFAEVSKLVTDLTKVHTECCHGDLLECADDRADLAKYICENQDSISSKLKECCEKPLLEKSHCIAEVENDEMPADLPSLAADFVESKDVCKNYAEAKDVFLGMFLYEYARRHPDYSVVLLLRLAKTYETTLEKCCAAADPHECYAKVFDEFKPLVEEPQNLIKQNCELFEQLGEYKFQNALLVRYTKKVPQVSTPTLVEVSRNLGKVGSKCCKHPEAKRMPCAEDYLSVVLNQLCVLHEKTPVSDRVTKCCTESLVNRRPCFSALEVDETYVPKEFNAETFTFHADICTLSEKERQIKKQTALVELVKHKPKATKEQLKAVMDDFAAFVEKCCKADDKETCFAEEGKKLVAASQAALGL", "test": "Binding affinity to human serum albumin in 100 mM phosphate buffer at pH 7.4 assessed as formation of biotin-LC-hydrazide labeled protein carbonyls at 100 uM pretreated 60 mins before biotin-LC-hydrazide challenge measured after 60 mins by SDS-PAGE/Western blotting", "format": "ADME", "details": "isolated protein, pH 7.4, 1 h"}}, "data": [{"smiles": "COc1c(O)cc([C@H]2Oc3cc(O)cc(O)c3C[C@H]2OC(=O)c2cc(O)c(O)c(O)c2)cc1O", "values": [{"measurement": "Stability", "setting": "[1]", "value": "Stable"}, {"measurement": "Activity", "setting": "Albumin", "value": "Active"}]}, {"smiles": "COc1c(O)cc(C(=O)O[C@@H]2Cc3c(O)cc(O)cc3O[C@@H]2c2cc(O)c(O)c(O)c2)cc1O", "values": [{"measurement": "Activity", "setting": "Albumin", "value": "Active"}]}, {"smiles": "COc1cc(C(=O)O[C@@H]2Cc3c(O)cc(O)cc3O[C@@H]2c2cc(O)c(O)c(O)c2)cc(O)c1O", "values": [{"measurement": "Stability", "setting": "[1]", "value": "Unstable"}, {"measurement": "Activity", "setting": "Albumin", "value": "Active"}]}, {"smiles": "O=C(O)c1cccc(O)c1O", "note": "[2,3-DIHYDROXYBENZOIC ACID]", "values": [{"measurement": "Activity", "setting": "Albumin", "value": "Not Active"}]}, {"smiles": "O=C(O)c1cc(O)cc(O)c1", "note": "[3,5-DIHYDROXYBENZOIC ACID]", "values": [{"measurement": "Activity", "setting": "Albumin", "value": "Not Active"}]}, {"smiles": "Oc1cc(O)c2c(c1)O[C@H](c1ccc(O)c(O)c1)[C@H](O)C2", "note": "[(-)-EPICATECHIN]", "values": [{"measurement": "Stability", "setting": "[1]", "value": "Stable"}, {"measurement": "Activity", "setting": "Albumin", "value": "Active"}]}, {"smiles": "O=C(O[C@@H]1Cc2c(O)cc(O)cc2O[C@@H]1c1ccc(O)c(O)c1)c1cc(O)c(O)c(O)c1", "note": "[EPICATECHIN GALLATE]", "values": [{"measurement": "Stability", "setting": "[1]", "value": "Stable"}, {"measurement": "Activity", "setting": "Albumin", "value": "Active"}]}, {"smiles": "Oc1cc(O)c2c(c1)O[C@H](c1cc(O)c(O)c(O)c1)[C@H](O)C2", "note": "[EPIGALLOCATECHIN]", "values": [{"measurement": "Stability", "setting": "[1]", "value": "Unstable"}, {"measurement": "Activity", "setting": "Albumin", "value": "Active"}]}, {"smiles": "O=C(O[C@@H]1Cc2c(O)cc(O)cc2O[C@@H]1c1cc(O)c(O)c(O)c1)c1cc(O)c(O)c(O)c1", "note": "[EPIGALOCATECHIN GALLATE]", "values": [{"measurement": "Stability", "setting": "[1]", "value": "Unstable"}, {"measurement": "Activity", "setting": "Albumin", "value": "Active"}]}, {"smiles": "COC(=O)c1cc(O)c(O)c(O)c1", "note": "[GALLIC ACID METHYL ESTER]", "values": [{"measurement": "Activity", "setting": "Albumin", "value": "Not Active"}]}, {"smiles": "O=C(O)c1ccc(O)c(O)c1", "note": "[PROTOCATECHUIC ACID]", "values": [{"measurement": "Activity", "setting": "Albumin", "value": "Not Active"}]}, {"smiles": "Oc1cccc(O)c1O", "note": "[PYROGALLOL]", "values": [{"measurement": "Activity", "setting": "Albumin", "value": "Active"}]}]}
